Where two headings read alike, the source gives them in different places.
What was measured:
beagles = experiment: 13-week repeated oral toxicity: observation of general symptoms; type: in vivo; conditions: repeated oral once a day for 13 weeks
Procedure: Furthermore, the present inventors performed a toxicity test on 5-hydroxy-1-methylimidazolidine-2,4-dione in beagles. Toxicity tests were conducted based on single oral administration and repeated oral administration for 13 weeks. The stability of the compound was analyzed by evaluating the analysis items including clinical symptoms, weight, feed intake, blood test, urine and eye test during the administration period.
General symptoms (such as vomiting, salivation, diarrhea, and abnormal behavior) and death were observed daily during the 13-week test period, starting from the day before administration, and abnormalities were recorded in clinical symptoms.

[1] = Pharmacokinetic analysis in beagles after oral administration; type: in vivo, beagle; conditions: for Cmax / AUC(0-inf) / AUC(0-t) / half-life / Tmax: beagle, dog, plasma, mean; for Cmax: po, read-out: Cmax (average highest plasma concentration); for Tmax: read-out: tmax (time of highest plasma concentration)
Procedure: For this purpose, 5-hydroxy-1-methylimidazolidine-2,4-dione was weighed, based on the fasting weight measured on the day of administration, using an electronic scale in accordance with the oral doses of 10, 50, 100, and 200 mg/kg for each experimental group, and was added to a 500 ml glass container, DW (distilled water) was added as an excipient, and the drug was dissolved therein through vortexing and stirring. Then, the beagles used in the subsequent experiments were acclimatized and environmentally adapted for about a week before the test, and then the compound was orally administered to each beagle at the doses listed in the table below. In addition, the beagles used in this experiment were bred and kept at the Endik Institute.
The compound was administered orally, blood was collected in a volume of 3 ml using a syringe from the jugular vein of the experimental beagle at each time (0 (before administration), 0.25, 0.5, 1, 1.5, 2, 4, 8, 12, and 24 hours), the collected blood was centrifuged at 4,000 rpm/10 minutes at 4° C. and dispensed into 500 μl of a set of two separate 1.5 ml tubes, and the remaining plasma was dispensed into another set and immediately stored in a deep freezer at −70° C. until analysis. The concentration of 5-hydroxy-1-methylimidazolidine-2,4-dione in the collected plasma was measured using the following method.
First, a standard sample solution for preparing a calibration curve was prepared. 1.2 mg of standard 5-hydroxy-1-methylimidazolidine-2,4-dione was dissolved in 0.12 ml of DMSO to prepare a stock solution having a final concentration of 10 mg/ml. Then, the stock solution was diluted to a final concentration of 500, 1,000, 2,000, 5,000, 10,000, 30,000, 100,000, 300,000, and 1,000,000 ng/ml with 70% acetonitrile as a solvent. Then, for an internal standard sample solution, 5.0 mg of 4-methylumbelliferone was dissolved in acetonitrile to prepare a final stock solution of 5 mg/ml, which was then diluted with acetonitrile to obtain a final concentration of 200 ng/ml.
To prepare a calibration curve using each solution prepared above, standard 5-hydroxy-1-methylimidazolidine-2,4-dione was dissolved in DMSO to prepare a 10 mg/ml standard stock solution and then the standard stock solution was frozen at −20° C., and the prepared standard stock solution was diluted with 70% acetonitrile to prepare a working solution. The working solution was diluted with blank plasma stored frozen below −20° C. (working standard solution 10%, blank plasma 90%) to prepare standard plasma to adjust the concentration of analyte in plasma to […]. 20 μl of each standard plasma was placed in a 1.5 ml micro-tube and then 180 μl of internal standard solution (200 ng/ml in ACN) was added thereto. After vortexing for 5 minutes, centrifugation was performed at 4° C. and 17,600×g for 5 minutes. 150 μl of the supernatant was transferred to a 300 μl screw vial, 5 μl of the supernatant was injected into the HPLCMS/MS system, and a calibration curve was plotted at the ratio of the peak area of the analyte to the obtained peak area of the internal standard.
Then, the plasma sample collected from the beagle was subjected to the following pretreatment for assay. 180 μl of the internal standard solution was added to 20 μl of the plasma sample to induce protein precipitation. Then, the mixed sample was suspended using a vortex mixer for 5 minutes, centrifuged at 17,600×g for 5 minutes, and 150 μl of the supernatant was transferred to an analysis container. Then, 5 μl of the supernatant was injected into a HPLC/MS/MS system and analysis was performed. The instruments used for analysis were an HPLC system (Agilent 1100 Series with on-line degasser, binary pump, thermostatted well-plate autosampler and column compartment) and an MS/MS system (SCIEX 4000 QTRAP System). […]

[2] = 13-week repeated oral toxicity: feed intake; type: in vivo, beagle; conditions: repeated oral once a day for 13 weeks
Procedure: During the 13-week test period starting from the day before administration, feed intake was measured a total of 14 times before administration (pre) and every week on the weight measurement day for 13 weeks after the first administration. Approximately 200 g/day/head of solid feed was injected into a feed container at a predetermined time on the day before the weight measurement day and consumed freely. After 24 hours, the remaining feed was measured the next day.

[3] = oral G3 (100 ng/kg [sic]; text 100 mg/kg)

CN1C(=O)NC(=O)C1O (stereo not shown) [KBP-001, 5-hydroxy-1-methylimidazolidine-2,4-dione]
general symptoms and deaths (beagles): no unusual symptoms (vomiting, salivation, diarrhea, behavioral abnormalities, etc.) or deaths occurred | Cmax ([1]; 10 mg/kg, oral 10 mg/kg (G1)): 15 µg/mL | Cmax ([1]; 100 mg/kg, oral G3 (100 ng/kg [sic]; text 100 mg/kg)): 102 µg/mL | Cmax ([1]; 200 mg/kg, oral 200 mg/kg (G4)): 233 µg/mL | AUC(0-inf) ([1]; oral 10 mg/kg (G1)): 66.2 µg·h/mL | AUC(0-t) ([1]; oral 10 mg/kg (G1)): 65.4 µg·h/mL | half-life ([1]; oral 10 mg/kg (G1)): 2.89 h | Tmax ([1]; oral 10 mg/kg (G1)): 0.6 h | AUC(0-inf) ([1]; oral 50 mg/kg (G2)): 289 µg·h/mL | AUC(0-t) ([1]; oral 50 mg/kg (G2)): 288 µg·h/mL | half-life ([1]; oral 50 mg/kg (G2)): 2.8 h | Tmax ([1]; oral 50 mg/kg (G2)): 0.35 h | AUC(0-inf) ([1]; oral 200 mg/kg (G4)): 1120 µg·h/mL | AUC(0-t) ([1]; oral 200 mg/kg (G4)): 1110 µg·h/mL | half-life ([1]; oral 200 mg/kg (G4)): 2.9 h | Tmax ([1]; oral 200 mg/kg (G4)): 0.45 h | AUC(0-inf) [1, 3]: 468 µg·h/mL | AUC(0-t) [1, 3]: 466 µg·h/mL | half-life [1, 3]: 2.97 h | Tmax [1, 3]: 0.8 h | adverse reactions ([1]; single oral 10, 50, 100, 200 mg/kg, until end of PK test): no adverse reactions were observed | feed intake [2]: no significant difference in feed intake between respective groups

Source: US20240299359A1, “PHARMACEUTICAL COMPOSITION FOR ANIMALS CONTAINING 5-HYDROXY-METHYLIMIDAZOLIDINE-2,4-DIONE COMPOUND AS ACTIVE INGREDIENT” (KYONGBO PHARM. CO., LTD., priority 2021, published 2024)
